One data set is filed under the species Homo sapiens. The data set can be described thus: Selectivity index, ratio of IC50 for human recombinant MAOA to IC50 for human recombinant MAOB.
In data set [1] the target is T1, Amine oxidase [flavin-containing] B (Homo sapiens, UniProt P27338).
T1 sequence (P27338 whole entry): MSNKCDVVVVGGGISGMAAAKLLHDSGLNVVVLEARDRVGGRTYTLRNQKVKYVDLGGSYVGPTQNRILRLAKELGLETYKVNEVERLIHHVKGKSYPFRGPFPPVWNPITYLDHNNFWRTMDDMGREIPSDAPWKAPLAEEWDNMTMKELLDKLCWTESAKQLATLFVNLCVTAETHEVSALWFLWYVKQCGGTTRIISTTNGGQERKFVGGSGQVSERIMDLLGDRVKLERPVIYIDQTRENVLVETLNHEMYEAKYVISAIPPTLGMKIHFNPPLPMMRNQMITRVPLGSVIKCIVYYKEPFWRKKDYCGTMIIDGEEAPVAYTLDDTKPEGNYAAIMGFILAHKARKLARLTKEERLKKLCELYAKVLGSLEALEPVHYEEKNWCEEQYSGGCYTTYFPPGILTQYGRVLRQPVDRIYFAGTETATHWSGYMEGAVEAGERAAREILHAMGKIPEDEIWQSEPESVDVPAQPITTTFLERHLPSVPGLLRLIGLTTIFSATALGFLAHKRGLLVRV
The data set can be described thus: Inhibition of human recombinant MAOB assessed as reduction in H2O2 production from p-tyramine incubated for 15 mins by Amplex red reagent based fluorimetric method.

In data set [2] the target is T2, Amine oxidase [flavin-containing] A (Homo sapiens, UniProt P21397).
T2 sequence (P21397 whole entry): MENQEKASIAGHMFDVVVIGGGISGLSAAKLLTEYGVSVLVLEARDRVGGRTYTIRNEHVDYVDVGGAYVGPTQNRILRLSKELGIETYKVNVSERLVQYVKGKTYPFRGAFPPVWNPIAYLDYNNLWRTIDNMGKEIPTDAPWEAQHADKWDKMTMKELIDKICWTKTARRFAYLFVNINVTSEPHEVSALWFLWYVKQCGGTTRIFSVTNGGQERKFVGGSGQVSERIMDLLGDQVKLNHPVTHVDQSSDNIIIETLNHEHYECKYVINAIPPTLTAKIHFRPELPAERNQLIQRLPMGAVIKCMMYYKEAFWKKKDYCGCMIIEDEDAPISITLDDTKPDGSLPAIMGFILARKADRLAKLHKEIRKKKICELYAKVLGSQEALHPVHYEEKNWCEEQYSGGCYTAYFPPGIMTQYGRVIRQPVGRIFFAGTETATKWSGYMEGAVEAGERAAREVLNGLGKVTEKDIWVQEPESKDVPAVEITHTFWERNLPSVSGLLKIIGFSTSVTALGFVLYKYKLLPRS
The data set can be described thus: Inhibition of human recombinant MAOA assessed as reduction in H2O2 production from p-tyramine at 100 uM incubated for 15 mins by Amplex red reagent based fluorimetric method. The following applies: 0.25 h.

pIC50: −log10 of the molar value.

In general, pIC50 refers to −log10 of the IC50, conventionally taken in molar units. On to `COc1c(OC/C=C(\C)C[C@@H]2C=C(CCC(N)=O)C(=O)O2)ccc2ccc(=O)oc12`, for which the Ratio IC50 in the data set listed under Homo sapiens is greater than 696. In data set [1], the pIC50 was 6.84. In data set [2], the “inhibition (INH)” value was “Not Active”.

For the origin of these results see ChEMBL document CHEMBL4043085, “Anisucoumaramide, a Bioactive Coumarin from Clausena anisum-olens” (J Nat Prod, 2017).
